Data from US10273279B2, “Protease activated receptor-1 (PAR1) derived cytoprotective polypeptides and related methods” (THE SCRIPPS RESEARCH INSTITUTE, priority 2011, dated 2019).
Where a chain is given by its changes, count along the chain named. Entries after “also recorded” stand apart in the source; their conditions may differ.

Tests used:
[1] = tested on: SEAP-PAR1; experiment: SEAP-PAR1 cleavage reporter on transfected HEK-293 cells (SEAP release); format: cell-based, human; conditions: in the absence of EPCR
Text: (§1) To facilitate analysis of APC-mediated PAR-1 activation, we created a full-length PAR-1 construct linked at the N-terminus to an alkaline phosphatase reporter group (SEAP). Selection of stable cell lines expressing both endothelial protein C receptor (EPCR) (wt or E86A) and SEAP-PAR1 allowed for a reliable and reproducible analysis of EPCR-dependent PAR-1 activation by APC. Mass-spec analysis of cleavage fragments generated by APC of a synthetic PAR-1 N-terminal tail peptide (TR33-62) identified both Arg^41 and Arg^46 as potential cleavage sites for APC proteolysis, as noted above. […] R41Q-SEAP-PAR1 was cleaved by APC in the presence of EPCR. This surprising result was also obtained for R41A-SEAP PAR1.
(§2) 2009; 113:5970-5978. SEAP-PAR1, either in the presence or absence of wt-EPCR, were transfected into HEK-293 cells to obtain stable cells expressing SEAP-PAR1 or wt-EPCR/SEAP-PAR1. Mutations in SEAP-PAR1 were introduced using the Quickchange method (Agilent). Cells were grown in 96-wells plates to confluency in Dulbeco's modified Eagle media (DMEM): Ham's F-12 (Invitrogen) supplemented with penicillin-streptomycin-glutamine (PSG) (Gibco) and 10% fetal bovine serum (Omega) in a humidified atmosphere at 37° C. and 5% CO2 Cells were washed with Hank's balanced salt solution (HBSS; Invitrogen) supplemented with 1.3 mM CaCl2, 0.6 mM MgCl2 and 0.1% endotoxin free BSA (Calbiochem) and incubated with APC. After 60 min, SEAP release was determined using 1-step PNPP (Pierce). Values were corrected for background activity derived from the same cells incubated in the absence of APC and expressed as a percentage of total SEAP available on the cell membrane.

[2] = target: T1, SEAP-PAR1 (Homo sapiens, UniProt P25116, R41Q/R46Q); experiment: as above; format: cell-based; conditions: cells with wt-EPCR
T1 construct: we created a full-length PAR-1 construct linked at the N-terminus to an alkaline phosphatase reporter group (SEAP); expressed in transfected cells
T1 sequence (P25116 22-425 R41Q/R46Q): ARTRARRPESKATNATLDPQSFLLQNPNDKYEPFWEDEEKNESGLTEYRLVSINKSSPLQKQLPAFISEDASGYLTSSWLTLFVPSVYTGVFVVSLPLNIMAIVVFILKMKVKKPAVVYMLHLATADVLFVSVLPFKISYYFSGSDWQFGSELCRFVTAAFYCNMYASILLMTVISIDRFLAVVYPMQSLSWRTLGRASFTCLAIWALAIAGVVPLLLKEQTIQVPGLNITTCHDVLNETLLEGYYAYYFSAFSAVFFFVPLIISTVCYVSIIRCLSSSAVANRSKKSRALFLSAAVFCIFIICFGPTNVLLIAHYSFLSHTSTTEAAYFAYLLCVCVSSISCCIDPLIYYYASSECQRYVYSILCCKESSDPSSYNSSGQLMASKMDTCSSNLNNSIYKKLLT
Text: as §1, §2

[3] = target: T2, SEAP-PAR1 (Homo sapiens, UniProt P25116, R41A); experiment: as above; format: cell-based; conditions: in the absence of EPCR
T2 construct: we created a full-length PAR-1 construct linked at the N-terminus to an alkaline phosphatase reporter group (SEAP); expressed in transfected cells
T2 sequence (P25116 22-425 R41A): T1 sequence (P25116 22-425 R41Q/R46Q) with Q20A, Q25R
Text: as §1, §2

[4] = tested on: Rac1 in endothelial EA.hy.926 cells; experiment: Rac1 activation (GST-PAK1 pull down of active GTP-Rac1); format: cell-based, human; conditions: peptides 50 μM, 30 or 180 min
Experimental: Some assays employed in this study were performed as follow. Rac1 activation. The pGEXTK-PAK1 70-117 construct encoding a GST fusion to p21-activated kinase (PAK-1)-binding domain (PBD) was kindly made available by Dr. J Chernoff (Addgene plasmid 12217). GST-PAK1 was purified from transformed BL21 (DE3) Escherichia coli using B-Per lysis buffer (Pierce) with lysozyme, DNAse 1 and Halt EDTA-free protease inhibitor cocktail (Pierce) on Glutathione-agarose according to the manufacturer's recommendation. Pull down of active Rac1 was performed as described in Pellegrin et al., Curr. Protoc. Cell Biol. 2008; Chapter 14:Unit 14.8. Briefly, endothelial EA.hy.926 cells (5*10^6 per plate) were grown in 100-mm dishes for 48 hr and serum starved overnight before addition of peptides (50 μM) for 30 or 180 min. Lysates (2 mg) were mixed with GST-PAK1 Glutathione-agarose (150 μg) and after washing active GTP-Rac1 was eluted from GST-PAK1 Glutathione-agarose by boiling in reducing SDS sample buffer (LI-COR). Active GTP-Rac1 was resolved on 12% SDS PAGE, transferred to Immobilon-FL PVDF membrane, and immunoblotted with a mouse anti-Rac1 antibody (BD Bioscience) and IRDye 800CW donkey anti-mouse secondary antibodies (LI-COR). Immunoblots were scanned on the Odyssey Imager (LI-COR). Quantification of integrated fluorescence intensity (K counts) was done using Odyssey Application Software v3.0 (LI-COR).

Substance | cleavage of wt-SEAP-PAR1 and R46Q-SEAP-PAR1 [1] | cleavage of R41Q/R46Q-SEAP-PAR1 [2] | cleavage of R41A-SEAP-PAR1 [3] | activation of Rac1 [4]
APC: Activated Protein C, serine protease with anticoagulant and cytoprotective cell signaling activities | did cleave | eliminated PAR-1 cleavage; also recorded: negligible | did not cleave | –
NPNDKYEPFWEDEEKNESGL (listed as Homo sapiens) [TR47-66] | – | – | – | induced APC-like activation of Rac1
